These results are taken from paper PMC7749613 (Journal of Cachexia, Sarcopenia and Muscle, 2020).

Series [1] can be described thus: Transepithelial transport in MDCKII mock cells. Conditions: dog, MDCK. The format is in vitro ADME. The method, then:
(§1) Cells were then washed three times, each with 0.5 mL pre‐warmed HBSS buffer. […] The cells were then incubated for various times up to 60 min. […] At the designated times, 15 μL of apical buffer and 50 μL of basolateral buffer were sampled. Once all the samples were collected, 0.5 mL of ice‐cold HBSS buffer was added to the well to stop transport after which the cells were rinsed three times with 0.5 mL of ice‐cold HBSS. The filters with monolayers were then detached from the chamber and placed in a scintillation vial, and the cells were lysed with 0.33 mL hyamine hydroxide.
(§2) The permeability of digoxin and rosuvastatin (prototypical substrates for MDR1 and BCRP, respectively) was determined by the following ^18 : (4) Papp=CR·VR/CD^o·A·∆Δt, where Papp is the apparent permeability, CR is the concentration of substrate in the receiver chamber, CD^o is the concentration of substrate in the donor chamber at time zero, VR is the volume of buffer in the receiver chamber, A is the surface area of the insert filter membrane, and ∆t is the time over which permeability is measured.

For series [2], the target named is T1, BCRP (ABCG2) (Homo sapiens, UniProt Q9UNQ0).
T1 construct: host or cells: MDCKII
T1 sequence (Q9UNQ0 1-655): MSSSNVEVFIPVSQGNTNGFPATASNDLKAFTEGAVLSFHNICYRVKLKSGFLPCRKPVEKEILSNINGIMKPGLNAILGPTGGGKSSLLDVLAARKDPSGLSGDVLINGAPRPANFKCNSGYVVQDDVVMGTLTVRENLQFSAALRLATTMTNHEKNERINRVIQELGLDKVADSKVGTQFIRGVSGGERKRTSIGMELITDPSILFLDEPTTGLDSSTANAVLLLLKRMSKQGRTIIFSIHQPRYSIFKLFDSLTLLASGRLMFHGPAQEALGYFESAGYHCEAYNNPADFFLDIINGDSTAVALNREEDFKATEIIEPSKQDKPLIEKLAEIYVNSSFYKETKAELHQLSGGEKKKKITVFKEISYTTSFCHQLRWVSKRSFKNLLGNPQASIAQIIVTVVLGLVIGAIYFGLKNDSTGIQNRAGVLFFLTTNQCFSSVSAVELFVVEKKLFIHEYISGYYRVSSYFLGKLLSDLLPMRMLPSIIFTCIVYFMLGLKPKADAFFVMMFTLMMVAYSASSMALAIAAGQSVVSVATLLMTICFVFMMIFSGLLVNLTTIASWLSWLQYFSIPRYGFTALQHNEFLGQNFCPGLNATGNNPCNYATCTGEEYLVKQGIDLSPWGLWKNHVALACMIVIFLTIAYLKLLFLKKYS
Kind of series: Transepithelial transport of rosuvastatin (±TCMCB07) in MDCKII/BCRP cells. The format is in vitro ADME. The conditions noted are these: human, pH 7.4, MDCKII/BCRP, rosuvastatin alone. Here is the method:
as §1, §2
A similar analysis can be performed for rosuvastatin by substituting ERRos for ERDig and ERRos+T for ERDig+T in Eqn 6.

The target of series [3] is MATE2‐K (Homo sapiens, UniProt Q86VL8). Nature of the series: Cellular uptake in HEK293/MATE2‐K‐transfected versus mock cells. The conditions noted are these: at 2.0 min. Further details: host or cells: HEK293. The format is in vitro ADME. Here is the method:
(§3) However, for these studies, a different incubation buffer was used (145 mM NaCl, 3 mM KCl, 1 mM CaCl2, 0.5 mM MgCl2, 5 mM glucose, and 5 mM HEPES, pH 7.4). ^13 Moreover, intracellular acidification was achieved by preincubating the cells in buffer containing 30 mM ammonium chloride for 20 min at 37°C. […] Radioactivity and protein measurements were performed as described previously.

The target in series [4] is T2, MATE1 (Homo sapiens, UniProt Q96FL8).
T2 sequence (Q96FL8 1-570): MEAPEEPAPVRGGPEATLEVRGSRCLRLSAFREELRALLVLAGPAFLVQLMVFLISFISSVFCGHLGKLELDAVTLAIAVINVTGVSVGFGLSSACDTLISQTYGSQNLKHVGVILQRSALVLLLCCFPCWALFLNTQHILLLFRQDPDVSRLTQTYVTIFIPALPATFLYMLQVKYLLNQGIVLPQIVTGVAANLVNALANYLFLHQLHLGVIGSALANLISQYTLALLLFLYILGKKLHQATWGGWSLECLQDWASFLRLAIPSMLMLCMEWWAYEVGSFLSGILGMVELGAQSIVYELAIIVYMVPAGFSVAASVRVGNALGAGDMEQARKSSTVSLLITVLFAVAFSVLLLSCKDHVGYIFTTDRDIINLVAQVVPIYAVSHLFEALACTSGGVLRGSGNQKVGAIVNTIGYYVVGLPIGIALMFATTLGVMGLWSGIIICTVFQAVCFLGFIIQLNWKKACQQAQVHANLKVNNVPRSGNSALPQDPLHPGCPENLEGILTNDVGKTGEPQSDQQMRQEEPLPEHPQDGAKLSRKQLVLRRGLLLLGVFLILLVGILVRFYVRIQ
Nature of the series: Cellular uptake in HEK293/MATE1‐transfected versus mock cells. The format is in vitro ADME. Also on record: host or cells: HEK293. The conditions noted are these: MATE1, at 2.0 min. Here is the method: as §3

Series [5] can be described thus: In vivo mass balance study (urinary and faecal recovery) in mice. Here is the method: Each mouse was then placed in a metabolic cage for 24 h, along with food and water, and the urine and faeces were collected. The metabolic cage was washed several times, after which 100 μL aliquots of diluted urine and faeces was placed in separate vials. Radioactivity measurements were then performed as described previously. All animal procedures were approved by the Institutional Animal Care and Use Committee at the University of Michigan, Ann Arbor.

Series [6] concerns the target T3, OCT2 (Homo sapiens, UniProt O15244).
T3 construct: host or cells: HEK293
T3 sequence (O15244 1-555): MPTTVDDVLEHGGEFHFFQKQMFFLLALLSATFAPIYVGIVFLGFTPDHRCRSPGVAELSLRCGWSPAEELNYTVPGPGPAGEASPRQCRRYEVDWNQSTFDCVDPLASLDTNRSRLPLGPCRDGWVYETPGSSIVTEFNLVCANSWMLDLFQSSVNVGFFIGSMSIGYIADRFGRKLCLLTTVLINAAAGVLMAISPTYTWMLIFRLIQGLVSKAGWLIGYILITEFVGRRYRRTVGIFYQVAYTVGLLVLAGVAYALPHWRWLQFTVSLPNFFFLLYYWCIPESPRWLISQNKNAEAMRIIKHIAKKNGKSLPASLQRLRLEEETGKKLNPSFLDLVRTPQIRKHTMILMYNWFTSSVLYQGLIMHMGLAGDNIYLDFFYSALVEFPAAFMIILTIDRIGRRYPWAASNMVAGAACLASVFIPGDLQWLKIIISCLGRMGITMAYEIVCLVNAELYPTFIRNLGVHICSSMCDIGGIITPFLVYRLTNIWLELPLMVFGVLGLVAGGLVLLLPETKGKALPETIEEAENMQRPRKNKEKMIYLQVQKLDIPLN
Kind of series: Cellular uptake in HEK293/OCT2‐transfected versus mock cells. The format is in vitro ADME. The conditions noted are these: OCT2, at 5.0 min.
Method: (§4) Cells were then washed three times × 1.0 mL each with pre‐warmed Hank's Balanced Salt Solution (HBSS) buffer. A 0.5 mL aliquot of uptake buffer [HBSS plus 10 mM 4‐(2‐hydroxyethyl)‐1‐piperazineethanesulfonic acid (HEPES), pH 7.4], containing the radiolabelled prototypical substrate and mannitol, was then incubated for various times up to 60 min to determine the optimal incubation time for subsequent experiments (i.e. time of sampling during linear uptake conditions). At the designated times, 1.0 mL of ice‐cold HBSS buffer was added to stop uptake after which the cells were rinsed three times with 1.0 mL with ice‐cold HBSS. Hyamine hydroxide (0.33 mL) was then added to each well to lyse the cells. The cells were transferred into a scintillation vial and mixed with 6.0 mL of cytosine scintillation cocktail. Radioactivity of the solubilized cells was determined with a dual‐channel liquid scintillation counter (Beckman LS 6000; Beckman Coulter Inc., Fullerton, CA) and the protein quantified by a bicinchoninic acid protein assay kit (Pierce Biotechnology; Rockford, IL).

The target of series [7] is T4, human P‐gp (ABCB1, MDR1) (Homo sapiens, UniProt P08183).
T4 construct: host or cells: MDCKII
Nature of the series: Transepithelial transport of digoxin (±TCMCB07) in MDCKII/MDR1 cells. Conditions: MDCKII/MDR1, digoxin alone. The format is in vitro ADME. The method, then: as §1, §2

For series [8], the target named is T5, OATP2B1 (Homo sapiens, UniProt O94956).
T5 construct: host or cells: HEK293
T5 sequence (O94956 1-709): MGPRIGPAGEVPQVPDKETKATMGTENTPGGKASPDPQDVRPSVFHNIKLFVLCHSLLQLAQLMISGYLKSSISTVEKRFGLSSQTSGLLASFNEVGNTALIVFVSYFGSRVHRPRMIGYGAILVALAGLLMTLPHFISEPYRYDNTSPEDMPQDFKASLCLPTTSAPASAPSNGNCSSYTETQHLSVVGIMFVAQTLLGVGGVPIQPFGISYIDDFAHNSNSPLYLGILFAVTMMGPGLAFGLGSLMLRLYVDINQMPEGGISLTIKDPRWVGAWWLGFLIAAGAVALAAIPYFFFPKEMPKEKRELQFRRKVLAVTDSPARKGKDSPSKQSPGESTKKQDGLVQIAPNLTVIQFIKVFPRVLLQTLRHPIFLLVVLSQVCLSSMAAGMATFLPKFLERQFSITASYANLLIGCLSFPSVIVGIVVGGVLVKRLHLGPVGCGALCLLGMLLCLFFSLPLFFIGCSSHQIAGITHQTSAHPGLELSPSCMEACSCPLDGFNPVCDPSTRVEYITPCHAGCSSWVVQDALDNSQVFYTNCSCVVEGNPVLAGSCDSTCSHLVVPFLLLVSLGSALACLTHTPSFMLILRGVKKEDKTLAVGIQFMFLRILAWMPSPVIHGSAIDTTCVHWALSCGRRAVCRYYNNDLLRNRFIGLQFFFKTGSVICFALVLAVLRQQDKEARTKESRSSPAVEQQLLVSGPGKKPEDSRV
Kind of series: Cellular uptake in HEK293/OATP2B1‐transfected versus mock cells. The conditions noted are these: OATP2B1, at 1.5 min. The format is in vitro ADME.
Method: as §4

The target of series [9] is T6, OAT3 (Homo sapiens, UniProt Q8TCC7).
T6 construct: host or cells: HEK293
T6 sequence (Q8TCC7 1-542): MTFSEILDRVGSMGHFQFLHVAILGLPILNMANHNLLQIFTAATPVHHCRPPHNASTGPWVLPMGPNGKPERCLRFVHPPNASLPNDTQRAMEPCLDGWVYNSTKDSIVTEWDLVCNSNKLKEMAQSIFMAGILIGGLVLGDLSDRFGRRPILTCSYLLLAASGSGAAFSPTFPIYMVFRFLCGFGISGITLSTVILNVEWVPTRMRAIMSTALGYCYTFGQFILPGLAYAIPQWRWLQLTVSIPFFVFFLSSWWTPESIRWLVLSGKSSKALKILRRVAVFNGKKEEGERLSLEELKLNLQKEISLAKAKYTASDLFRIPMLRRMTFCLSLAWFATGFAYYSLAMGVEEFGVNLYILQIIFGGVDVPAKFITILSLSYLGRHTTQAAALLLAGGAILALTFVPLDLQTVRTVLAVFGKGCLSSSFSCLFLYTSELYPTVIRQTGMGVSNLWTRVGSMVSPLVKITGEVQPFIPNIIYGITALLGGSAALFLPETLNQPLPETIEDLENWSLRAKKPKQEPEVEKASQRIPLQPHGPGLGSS
Kind of series: Cellular uptake in HEK293/OAT3‐transfected versus mock cells. The format is in vitro ADME. The conditions noted are these: OAT3, at 5.0 min.
Method: as §4

Where [10] appears, read: table values multiplied ×10^6, cm/s.

“And” between values parts separate entries of the source, which are not always exact repeats. Equal values may be shown once.

T4 sequence (P08183 whole entry): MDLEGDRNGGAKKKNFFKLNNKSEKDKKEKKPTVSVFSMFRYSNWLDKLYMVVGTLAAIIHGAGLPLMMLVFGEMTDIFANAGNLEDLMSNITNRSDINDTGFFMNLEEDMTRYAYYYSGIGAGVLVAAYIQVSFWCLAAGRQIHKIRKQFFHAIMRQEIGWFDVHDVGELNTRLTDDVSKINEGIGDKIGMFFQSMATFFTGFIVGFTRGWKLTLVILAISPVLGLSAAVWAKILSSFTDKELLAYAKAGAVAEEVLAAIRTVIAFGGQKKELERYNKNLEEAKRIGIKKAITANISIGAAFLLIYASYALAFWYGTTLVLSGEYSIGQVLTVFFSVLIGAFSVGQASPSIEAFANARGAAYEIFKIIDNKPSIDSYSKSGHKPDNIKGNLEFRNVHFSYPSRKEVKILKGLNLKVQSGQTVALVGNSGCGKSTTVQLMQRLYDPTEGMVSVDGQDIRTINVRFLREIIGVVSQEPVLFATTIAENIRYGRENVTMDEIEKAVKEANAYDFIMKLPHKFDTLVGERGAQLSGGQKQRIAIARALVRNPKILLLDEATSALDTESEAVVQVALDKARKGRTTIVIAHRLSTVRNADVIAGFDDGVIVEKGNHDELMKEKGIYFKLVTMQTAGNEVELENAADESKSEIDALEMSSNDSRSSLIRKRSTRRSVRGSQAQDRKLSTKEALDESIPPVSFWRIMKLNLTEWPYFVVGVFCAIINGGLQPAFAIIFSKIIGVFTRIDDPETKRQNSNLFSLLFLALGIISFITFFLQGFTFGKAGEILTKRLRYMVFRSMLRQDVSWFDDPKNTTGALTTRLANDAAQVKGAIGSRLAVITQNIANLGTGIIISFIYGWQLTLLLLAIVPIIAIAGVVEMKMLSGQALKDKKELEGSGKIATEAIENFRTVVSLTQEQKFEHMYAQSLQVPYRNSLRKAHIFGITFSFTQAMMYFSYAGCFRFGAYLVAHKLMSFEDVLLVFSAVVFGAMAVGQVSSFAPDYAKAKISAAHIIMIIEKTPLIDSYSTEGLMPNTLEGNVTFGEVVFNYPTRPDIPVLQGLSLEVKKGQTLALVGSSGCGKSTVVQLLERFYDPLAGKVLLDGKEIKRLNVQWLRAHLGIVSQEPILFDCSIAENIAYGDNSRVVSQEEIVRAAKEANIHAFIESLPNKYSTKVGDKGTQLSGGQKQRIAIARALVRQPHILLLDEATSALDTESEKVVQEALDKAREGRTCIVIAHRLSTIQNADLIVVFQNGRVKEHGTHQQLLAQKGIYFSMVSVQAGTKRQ
Sequence of MATE2‐K (Q86VL8 1-566 isoform Q86VL8-3): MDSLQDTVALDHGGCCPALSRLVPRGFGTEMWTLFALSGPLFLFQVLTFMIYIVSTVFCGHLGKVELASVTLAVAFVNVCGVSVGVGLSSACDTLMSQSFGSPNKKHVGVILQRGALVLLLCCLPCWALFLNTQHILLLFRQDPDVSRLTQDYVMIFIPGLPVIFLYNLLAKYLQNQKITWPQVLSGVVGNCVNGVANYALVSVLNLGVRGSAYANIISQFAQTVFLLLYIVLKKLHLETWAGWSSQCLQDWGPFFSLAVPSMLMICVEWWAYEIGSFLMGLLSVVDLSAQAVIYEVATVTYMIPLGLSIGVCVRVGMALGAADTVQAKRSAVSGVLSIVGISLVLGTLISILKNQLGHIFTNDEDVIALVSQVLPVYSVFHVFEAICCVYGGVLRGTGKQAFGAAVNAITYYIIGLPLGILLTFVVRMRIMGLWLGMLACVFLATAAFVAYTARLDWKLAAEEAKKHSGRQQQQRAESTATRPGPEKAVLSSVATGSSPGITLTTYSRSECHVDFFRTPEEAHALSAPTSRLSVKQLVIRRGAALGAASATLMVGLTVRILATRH

Take `CC(C)c1nc(N(C)S(C)(=O)=O)nc(-c2ccc(F)cc2)c1/C=C/[C@@H](O)C[C@@H](O)CC(=O)O` [Rosuvastatin, rosuvastatin]: the efflux ratio at 21 nM in series [1] (pH 7.4, read-out: mean efflux ratio of rosuvastatin) came to 3.1; in series [2] (read-out: Efflux ratio of rosuvastatin, Papp B to A/Papp A to B), 7 ± 0.3. The Papp A→B at 21 nM in [1] (pH 7.4, read-out: mean permeability of rosuvastatin (A to B)) was determined as 180 nm/s; in series [2] (setting [10]) it was 110 ± 1 nm/s. Besides, the Papp B→A at 21 nM in [1] (pH 7.4, read-out: mean permeability of rosuvastatin (B to A)) is 550 nm/s; in series [2] (setting [10]), 768 ± 41 nm/s.
Consider `CC[N+](CC)(CC)CC` [tetraethylammonium], for which the “mean enhancement of uptake (transfected/mock)” value was 46.7 in series [3] and 122 in series [4].
Regarding inulin, the “% Urinary recovery, intravenous inulin” value in [5] (individual mice, [3H]inulin iv bolus given with intravenous TCMCB07, 24 h collection) is 104% and 93.2% and 95.1%; in series [5] (individual mice, [3H]inulin iv bolus given with oral TCMCB07, 24 h collection (mouse 2: 48 h)), 106% and 100% and 107%; in series [5] (mean of 3 mice, given with intravenous TCMCB07), 97.4%; in series [5] (mean of 4 mice, given with oral TCMCB07) it was 105%.
`C[n+]1ccc(-c2ccccc2)cc1` [1‐methyl‐4‐phenylpyridinium]: the “mean enhancement of uptake (transfected/mock)” value in [6] was determined as 373.
`C[C@H]1O[C@@H](O[C@H]2[C@@H](O)C[C@H](O[C@H]3[C@@H](O)C[C@H](O[C@H]4CC[C@@]5(C)[C@H](CC[C@@H]6[C@@H]5C[C@@H](O)[C@]5(C)[C@@H](C7=CC(=O)OC7)CC[C@]65O)C4)O[C@@H]3C)O[C@@H]2C)C[C@H](O)[C@@H]1O` [Digoxin, digoxin]: the efflux ratio at 38 nM in series [1] (pH 7.4, read-out: mean efflux ratio of digoxin) stood at 4.5. The Papp A→B at 38 nM in series [1] (pH 7.4, read-out: mean permeability of digoxin (A to B)) amounted to 63 nm/s. Further, in [1] (pH 7.4, read-out: mean permeability of digoxin (B to A)), the Papp B→A at 38 nM is 208 nm/s. The “Efflux ratio of digoxin, Papp B to A/Papp A to B” value in [7] came out at 24.2 ± 7.3. In addition, in series [7] (setting [10]), the “Papp (A to B) of digoxin” value is 1.1 ± 0.3 ×10^−6 cm/s and the “Papp (B to A) of digoxin” value was 22.4 ± 4.0 ×10^−6 cm/s.
As for `C[C@]12CC[C@@H]3c4ccc(OS(=O)(=O)O)cc4CC[C@H]3[C@@H]1CCC2=O` [estrone 3‐sulfate], the “mean enhancement of uptake (transfected/mock)” value in [8] came to 63.5; in series [9], 470.
